Results: patent US8084489B2 (Eli Lilly and Company, priority 2005, dated 2011)

Target: cloned human glucagon receptor (Homo sapiens, UniProt P47871)
Experiment: Glucagon Receptor (hGlucR) Binding Assay
Description: This plasmid DNA was transfected into 293 HEK cells and selected with 200 ug/ml Hygromycin.
Crude plasma membranes are prepared using cells from suspension culture. The cells are lysed on ice in hypotonic buffer containing 25 mM Tris HCL, pH 7.5, 1 mM MgCl2, DNAse1, 20 u/ml, and Roche Complete Inhibitors-without EDTA. The cell suspension is homogenized with a glass dounce homogenizer using a Teflon pestle for 25 strokes. The homogenate is centrifuged at 4 degrees C. at 1800×g for 15 mins. The supernate is collected and the pellet is resuspended in hypotonic buffer and rehomogenized. The mixture is centrifuged at 1800×g for 15 mins. The second supernate is combined with the first supernate. The combined supernates are recentrifuged at 1800×g for 15 mins to clarify. The clarified supernate is transferred to high speed tubes and centrifuged at 25000×g for 30 minutes at 4 degrees C. The membrane pellet is resuspended in homogenization buffer and stored as frozen aliquots at −80 degree C. freezer until needed.
The specific activity is 2200 Ci/mmol.
The binding buffer contains 25 mM Hepes, pH 7.4, 2.5 mM CaCl2, 1 mM MgCl2, 0.1% fatty acid free BSA, (ICN), 0.003% tween-20, and Roche Complete Inhibitors without EDTA. […] Test compounds are dissolved in DMSO and serially diluted in DMSO. […] Plates are read with a MicroBeta after 14 hours of settling time at room temp. […]

cloned human glucagon receptor, sequence (P47871 26-477): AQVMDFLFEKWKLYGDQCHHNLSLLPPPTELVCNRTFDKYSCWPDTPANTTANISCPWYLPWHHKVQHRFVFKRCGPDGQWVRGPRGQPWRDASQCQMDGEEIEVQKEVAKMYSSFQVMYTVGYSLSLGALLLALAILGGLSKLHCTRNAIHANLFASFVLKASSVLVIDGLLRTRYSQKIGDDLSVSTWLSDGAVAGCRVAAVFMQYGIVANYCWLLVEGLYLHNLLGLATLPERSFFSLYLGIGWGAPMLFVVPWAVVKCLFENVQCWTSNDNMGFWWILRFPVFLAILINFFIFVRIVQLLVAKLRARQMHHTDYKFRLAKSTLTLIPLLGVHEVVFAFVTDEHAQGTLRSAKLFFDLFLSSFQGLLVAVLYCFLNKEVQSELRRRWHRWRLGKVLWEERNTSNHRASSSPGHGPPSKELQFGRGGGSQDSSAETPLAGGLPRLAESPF

A Ki of 390 nM was found for CC(C)CC(Oc1ccc(-c2ccc(C(F)(F)F)cc2)cc1)c1ccc(C(=O)NCCC(=O)O)s1 (centres unmarked) in this work.

A Ki of 296 nM was found for CC(C)CC(Oc1ccc(-c2ccc(C(C)(C)C)cc2)nc1)c1ccc(C(=O)NCCC(=O)O)s1 (centres unmarked) in this work.
